Source: PMC10150354, “Linearization of the Brevicidine and Laterocidine Lipopeptides Yields Analogues That Retain Full Antibacterial Activity” (Journal of Medicinal Chemistry, 2023)
In brackets after ≈: the same amount, converted by molar mass. Where a SMILES comes first, the peptide text is derived from it. [ ]: non-standard residue; d: D form. The star is where a group is joined. ξ: configuration not given here. Octanoyl(7-Me) = CC(C)CCCCCC(=O)*; Hexanoyl(4ξ-Me) = CCC(C)CCC(=O)*; dOrn = NCCC[C@@H](N)C(=O)O; Orn = NCCC[C@H](N)C(=O)O; OAll = C=CCO*

Legend:
A. baumannii ATCC 17961 = format: cell-based, Acinetobacter baumannii; conditions: microbroth dilution per CLSI, MHB, 18 h at 37 °C, visual inspection, three technical replicates
Procedure: (§1) Linear laterocidine (LL-OH, 4) and linear brevicidine (LB-OH, 5) were first synthesized by Fmoc SPPS, starting from 2-chlorotrityl (2-CT) chloride resin. The antibacterial activity of these peptides was then compared to brevicidine (1) and laterocidine (2) using minimum inhibitory concentration (MIC)/microbroth dilution assays (Table 1). The MICs of all peptides were determined against a panel of Gram-negative and Gram-positive ESKAPE pathogens. Additionally, a strain of E. coli carrying the mcr-1 gene was included in the panel. The mcr-1 gene is a transferrable plasmid that confers resistance against colistin, a last-resort antibiotic for Gram-negative infections, by reducing the overall negative charge of lipopolysaccharide (LPS) through modification of lipid A with phosphoethanolamine. The propensity for cationic antibiotics to bind to the cell membrane is therefore reduced. This gene has been observed in more than 27 bacterial species over six continents.[26] The spread of the mcr-1 gene could render colistin ineffectual; therefore, novel antibacterials are urgently required to overcome this form of resistance.
(§2) All minimum inhibitory concentrations (MICs) were determined according to Clinical and Laboratory Standards Institute (CLSI) guidelines. Blood agar plates were inoculated with glycerol stocks of E. coli ATCC 25922, K. pneumoniae ATCC 13883, A. baumannii ATCC 17961, P. aeruginosa PAO1, and S. aureus USA300. The inoculated agar plates were then incubated for 16 h at 37 °C. Individually grown colonies were subsequently used to inoculate 5 mL aliquots of TSB that were then incubated at 37 °C with shaking at 220 rpm. E. coli 25922 MCR-1 glycerol stock was used to inoculate 5 mL of TSB supplemented with kanamycin that was then incubated for 16 h at 37 °C with shaking at 220 rpm. The next day the culture was diluted 100-fold in TSB supplemented with kanamycin and incubated at 37 °C with shaking at 220 rpm. In parallel, the lipopeptide antibiotics DMSO stocks to be assessed were serially diluted with MHB in polypropylene 96-well plates (50 μL in each well). Colistin sulfate stocks were dissolved in water before being diluted with MHB. Aliquots of the inoculated TSB were incubated until an OD600 of around 0.5 was reached. The bacterial suspensions were then diluted with MHB (2 × 10^5 CFU/mL) and added to the microplates containing the test compounds (50 μL to each well). The well plates were sealed with an adhesive membrane and after 18 h of incubation at 37 °C with shaking at 600 rpm, the wells were visually inspected for bacterial growth. MIC values reported are based on three technical replicates and defined as the lowest concentration of the compound that prevented visible growth of bacteria.

E. coli (MCR-1) = format: cell-based, Escherichia coli; conditions: microbroth dilution per CLSI, MHB, 18 h at 37 °C, visual inspection, three technical replicates, E. coli 25922 carrying mcr-1
Procedure, shortened: (§3)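 Broth microdilution per CLSI in MHB: TSB cultures grown to OD600 ~0.5 were diluted to 2 × 10^5 CFU/mL and added to serially diluted compounds, then incubated 18 h at 37 °C with shaking. MIC is the lowest concentration preventing visible growth, from three technical replicates; the MCR-1 strain (E. coli ATCC 25922 background) was grown with kanamycin.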

E. coli ATCC 25922 = format: cell-based, Escherichia coli; conditions: for MIC (µg/mL) against E. coli (ATCC 25922): (Supplement 2); for Antibacterial activity (MIC) E. coli ATCC 25922: microbroth dilution per CLSI, MHB, 18 h at 37 °C, visual inspection, three technical replicates
Procedure, shortened: as §3

S. aureus USA300 = format: cell-based, Staphylococcus aureus; conditions: microbroth dilution per CLSI, MHB, 18 h at 37 °C, visual inspection, three technical replicates
Procedure: as §1, §2

K. pneumoniae ATCC 13883 = format: cell-based, Klebsiella pneumoniae; conditions: microbroth dilution per CLSI, MHB, 18 h at 37 °C, visual inspection, three technical replicates
Procedure: as §1, §2

P. aeruginosa PAO1 = format: cell-based, Pseudomonas aeruginosa; conditions: microbroth dilution per CLSI, MHB, 18 h at 37 °C, visual inspection, three technical replicates
Procedure: as §1, §2

Row | Structure (SMILES) | Antibacterial activity (MIC) A. baumannii ATCC 17961 (A. baumannii ATCC 17961) | Antibacterial activity (MIC) E. coli (MCR-1) (E. coli (MCR-1)) | MIC (µg/mL) against E. coli (ATCC 25922) (E. coli ATCC 25922) | Antibacterial activity (MIC) E. coli ATCC 25922 (E. coli ATCC 25922) | Antibacterial activity (MIC) S. aureus USA300 (S. aureus USA300) | Antibacterial activity (MIC) K. pneumoniae ATCC 13883 (K. pneumoniae ATCC 13883) | Antibacterial activity (MIC) P. aeruginosa PAO1 (P. aeruginosa PAO1)
1 | CC[C@H](C)[C@H](NC(=O)[C@H](Cc1c[nH]c2ccccc12)NC(=O)[C@H](Cc1c[nH]c2ccccc12)NC(=O)[C@@H](CCCN)NC(=O)CNC(=O)[C@H](CCCN)NC(=O)[C@@H](CCCN)NC(=O)[C@@H](Cc1c[nH]c2ccccc12)NC(=O)[C@@H](Cc1ccc(O)cc1)NC(=O)[C@@H](CO)NC(=O)CCCCCC(C)C)C(=O)N[C@@H](CC(N)=O)C(=O)NCC(=O)NCC(N)=O [LL(Trp9)-NH2 (45)] ({Octanoyl(7-Me)}-[dS][dY][dW][dOrn][Orn]G[dOrn]WWINGG-NH2) | 4 µg/mL | 4 µg/mL | 4 µg/mL (≈ 2.34 µM) | 4 µg/mL | >32 µg/mL | 4 µg/mL | 16 µg/mL
2 | CC[C@H](C)[C@H](NC(=O)[C@@H](NC(=O)[C@H](Cc1c[nH]c2ccccc12)NC(=O)[C@@H](CCCN)NC(=O)CNC(=O)[C@H](CCCN)NC(=O)[C@@H](C)NC(=O)[C@@H](Cc1c[nH]c2ccccc12)NC(=O)[C@@H](Cc1ccc(O)cc1)NC(=O)[C@@H](CO)NC(=O)CCCCCC(C)C)[C@@H](C)O)C(=O)N[C@@H](CC(N)=O)C(=O)NCC(=O)NCC(N)=O [LL(D-Ala4)-NH2 (32)] ({Octanoyl(7-Me)}-[dS][dY][dW][dA][Orn]G[dOrn]WTINGG-NH2) | 32 µg/mL | >32 µg/mL |  | >32 µg/mL | >32 µg/mL | >32 µg/mL | >32 µg/mL
3 | CC[C@H](C)[C@H](NC(=O)[C@@H](NC(=O)[C@H](Cc1c[nH]c2ccccc12)NC(=O)[C@@H](C)NC(=O)CNC(=O)[C@H](CCCN)NC(=O)[C@@H](CCCN)NC(=O)[C@@H](Cc1c[nH]c2ccccc12)NC(=O)[C@@H](Cc1ccc(O)cc1)NC(=O)[C@@H](CO)NC(=O)CCCCCC(C)C)[C@@H](C)O)C(=O)N[C@@H](CC(N)=O)C(=O)NCC(=O)NCC(N)=O [LL(D-Ala7)-NH2 (35)] ({Octanoyl(7-Me)}-[dS][dY][dW][dOrn][Orn]G[dA]WTINGG-NH2) | 32 µg/mL | >32 µg/mL |  | >32 µg/mL | >32 µg/mL | >32 µg/mL | 32 µg/mL
4 | C=CCOC(=O)CC[C@H](NC(=O)[C@H](Cc1c[nH]c2ccccc12)NC(=O)[C@@H](CCCN)NC(=O)CNC(=O)[C@H](CCCN)NC(=O)[C@@H](CCCN)NC(=O)[C@@H](Cc1c[nH]c2ccccc12)NC(=O)[C@@H](Cc1ccc(O)cc1)NC(=O)[C@@H](CO)NC(=O)CCCCCC(C)C)C(=O)N[C@H](C(=O)N[C@@H](CC(N)=O)C(=O)NCC(=O)NCC(N)=O)[C@@H](C)CC [LL(Glu[OAll]9)-NH2 (51)] ({Octanoyl(7-Me)}-[dS][dY][dW][dOrn][Orn]G[dOrn]WE(OAll)INGG-NH2) | 16 µg/mL | 16 µg/mL | 16 µg/mL (≈ 9.47 µM) | 16 µg/mL | >32 µg/mL | >32 µg/mL | >32 µg/mL
5 | CCC(C)CCC(=O)N[C@H](CC(N)=O)C(=O)N[C@H](Cc1ccc(O)cc1)C(=O)N[C@H](Cc1c[nH]c2ccccc12)C(=O)N[C@H](CCCN)C(=O)N[C@@H](CCCN)C(=O)NCC(=O)N[C@H](CCCN)C(=O)N[C@@H](Cc1c[nH]c2ccccc12)C(=O)N[C@@H](CCSC)C(=O)N[C@H](C(=O)NCC(N)=O)[C@@H](C)CC (some centres unmarked) [Δ12LB (Met9)-NH2 (55)] ({Hexanoyl(4ξ-Me)}-[dN][dY][dW][dOrn][Orn]G[dOrn]WMIG-NH2) | 4 µg/mL | 4 µg/mL | 2 µg/mL (≈ 1.35 µM) | 4 µg/mL | >32 µg/mL | 4 µg/mL | 4 µg/mL
6 | CC[C@H](C)[C@H](NC(=O)[C@@H](NC(=O)[C@H](Cc1c[nH]c2ccccc12)NC(=O)[C@@H](CCCN)NC(=O)[C@H](C)NC(=O)[C@H](CCCN)NC(=O)[C@@H](CCCN)NC(=O)[C@@H](Cc1c[nH]c2ccccc12)NC(=O)[C@@H](Cc1ccc(O)cc1)NC(=O)[C@@H](CO)NC(=O)CCCCCC(C)C)[C@@H](C)O)C(=O)N[C@@H](CC(N)=O)C(=O)NCC(=O)NCC(N)=O [LL(Ala6)-NH2 (34)] ({Octanoyl(7-Me)}-[dS][dY][dW][dOrn][Orn]A[dOrn]WTINGG-NH2) | 16 µg/mL | 8 µg/mL | 4 to 8 µg/mL | 4 to 8 µg/mL | >32 µg/mL | 8 µg/mL | 16 µg/mL
7 | CC[C@H](C)[C@H](NC(=O)[C@@H](NC(=O)[C@H](Cc1c[nH]c2ccccc12)NC(=O)[C@@H](CCCN)NC(=O)CNC(=O)[C@H](CCCN)NC(=O)[C@@H](CCCN)NC(=O)[C@@H](Cc1c[nH]c2ccccc12)NC(=O)[C@@H](Cc1ccc(O)cc1)NC(=O)[C@@H](CO)NC(=O)CCCCCC(C)C)[C@@H](C)O)C(=O)N[C@@H](CC(N)=O)C(=O)NCC(=O)N[C@@H](C)C(N)=O [LL(Ala13)-NH2 (41)] ({Octanoyl(7-Me)}-[dS][dY][dW][dOrn][Orn]G[dOrn]WTINGA-NH2) | 8 µg/mL | 8 µg/mL | 4 to 8 µg/mL | 4 to 8 µg/mL | >32 µg/mL | 8 µg/mL | 4 µg/mL
8 | CC[C@H](C)[C@H](NC(=O)[C@H](C)NC(=O)[C@H](Cc1c[nH]c2ccccc12)NC(=O)[C@@H](CCCN)NC(=O)CNC(=O)[C@H](CCCN)NC(=O)[C@@H](CCCN)NC(=O)[C@@H](Cc1c[nH]c2ccccc12)NC(=O)[C@@H](Cc1ccc(O)cc1)NC(=O)[C@@H](CO)NC(=O)CCCCCC(C)C)C(=O)N[C@@H](CC(N)=O)C(=O)NCC(=O)NCC(N)=O [LL(Ala9)-NH2 (37)] ({Octanoyl(7-Me)}-[dS][dY][dW][dOrn][Orn]G[dOrn]WAINGG-NH2) | 8 µg/mL | 4 to 8 µg/mL |  | 4 µg/mL | >32 µg/mL | 4 µg/mL | 4 µg/mL
